Results taken from patent US9662308B2, “Orally bioavailable pentamidine prodrugs for the treatment of diseases” (Dritte Patentportfolio Beteiligungsgesellschaft mbH & Co. KG, priority 2008, dated 2017).
Values after ≈ are worked out from the molar mass of the structure shown. Read-outs that look alike come from different tables or passages of the source. Each block holds one compound with its values, some of them ahead of it.

Assays:
[1] = Solubility in 50 mM phosphate buffer (HPLC); settings: for solubility at 20 min: 50 mM phosphate buffer, thermodynamic from solid
Method: […] Subsequently, the undissolved part was removed by centrifugation (12,000 rpm) and the samples were immediately measured by HPLC. The evaluation of the solubility ensued via a calibration of N,N′-bis(succinyloxy)pentamidine (1) in DMSO.
Solubilities were determined analogously to the method described for compound 1.

[2] = Method: Samples were stored at room temperature and 70° C. over a defined period and examined for analyzing the prodrug (1) storage stability. The storage period was 6 months for the room temperature samples, 7 days for the 70° C. samples. The prodrug (1) content was determined by means of HPLC. For this purpose, the samples were dissolved in a mixture of equal parts of methanol and phosphate buffer (20 mM, pH 7.4) and immediately measured. The HPLC method corresponds to the method described under “Characterization of the prodrugs”.
[3] = remark: listed apart in the source
Method: For the stability analyses, a 0.1 mM solution of N,N′-bis(succinyloxy)pentamidine (1) was prepared in a 50 mM potassium phosphate buffer/DMSO (90/10, vol/vol). The analysis took place at pH values of 2.0, 7.4 and 9.0. One sample was taken and immediately analyzed by HPLC every 15 min over a period of 150 min.
(§1) The stability analyses were evaluated by means of the following HPLC method: […]

[4] = remark: listed apart in the source
Method: Further analyses were conducted with human and murine plasma. 900 μl of the plasma was mixed with 100 μl of a 2 mM solution of N,N′-bis(succinyloxy)pentamidine (1). The final concentration of N,N′-bis(succinyloxy)pentamidine (1) was thus 0.2 mM. The samples were incubated at 37° C. in a shaking water bath and samples were taken after 0, 15, 30, 45, 60, 75, 90, 105 and 120 min. For this purpose, 100 μl was drawn in each case and mixed with 100 μl acetonitrile. The samples were shaken, centrifuged for 5 min and the supernatant was measured by HPLC.
as §1

[5] = rat, in vivo
[6] = test system: 9000×g supernatants, microsomes and mitochondria of human liver and kidney tissues; type: in vitro ADME; settings: pH 6.3
Method: The activation of the prodrug was determined in vitro by means of subcellular enzyme preparations. 9000×g of supernatants, microsomes and mitochondria of human and porcine liver and kidney tissues were used as the enzyme preparations. The incubation batches were composed of […] prodrug, 1 mM NADH, 1 U esterase and 0.3 mg enzyme preparation dissolved in 150 μ100 mM phosphate buffer, pH 6.3. The incubation took place over 20 min in a shaking water bath at 37° C. The incubation was terminated by adding 150 μl of acetonitrile. The samples were subsequently shaken for 10 min and the precipitated protein was removed by centrifuging at 10,000 RPM for 15 min. The supernatant was measured by means of HPLC.

leishmania = settings: cited from earlier work
trypanosomes = settings: cited from earlier work
plasmodia = settings: cited from earlier work

Solubility ([1]; pH 2.0): >35000 µM | Solubility ([1]; pH 7.4): 157 ± 19 µM (≈ 89.6 µg/mL) | Solubility ([1]; pH 9.0): 84 ± 18 µM (≈ 47.9 µg/mL)
SMILES: CC(C)[C@H](N)C(=O)O/N=C(\N)c1ccc(OCCCCCOc2ccc(/C(N)=N/OC(=O)[C@@H](N)C(C)C)cc2)cc1 [N,N′-bis(valoxy)pentamidine]

solubility at 20 min ([1]; pH 2, aqueous buffer): 4210 ± 231 µM (≈ 1570 µg/mL) | solubility at 20 min ([1]; pH 7.4, aqueous buffer): 12 ± 1 µM (≈ 4.47 µg/mL) | solubility at 20 min ([1]; pH 9, aqueous buffer): 4 ± 1 µM (≈ 1.49 µg/mL)
SMILES: N/C(=N\O)c1ccc(OCCCCCOc2ccc(/C(N)=N/O)cc2)cc1 [Pentamidine diamidoxime (3), Pentamidine diamidoxime]

Solubility ([1]; pH 2.0): 22285 ± 1244 µM (≈ 7940 µg/mL) | Solubility ([1]; pH 7.4): 1370 ± 291 µM (≈ 488 µg/mL) | Solubility ([1]; pH 9.0): 1257 ± 40 µM (≈ 448 µg/mL)
SMILES: N=C(N)c1ccc(OCCCCCOc2ccc(C(N)=NO)cc2)cc1 [Pentamidine monoamidoxime]

Second part, the compound before the results:

SMILES: CC(=O)ON=C(N)c1ccc(OCCCCCOc2ccc(C(N)=NOC(C)=O)cc2)cc1 [N,N′-bis(acetoxy)pentamidine]
Solubility ([1]; pH 2.0): 14 ± 8 µM (≈ 6.39 µg/mL) | Solubility ([1]; pH 7.4): 2 ± 1 µM (≈ 0.913 µg/mL) | Solubility ([1]; pH 9.0): 3 ± 2 µM (≈ 1.37 µg/mL)

SMILES: NC(=NO)c1ccc(OCCCCCOc2ccc(C(N)=NO)cc2)cc1 [N,N′-bis(dihydroxy)pentamidine]
Solubility ([1]; pH 2.0): >35000 µM | Solubility ([1]; pH 7.4): 95 ± 8 µM (≈ 35.4 µg/mL) | Solubility ([1]; pH 9.0): 21 ± 3 µM (≈ 7.82 µg/mL)

SMILES: CON=C(N)c1ccc(OCCCCCOc2ccc(C(N)=NOC)cc2)cc1 [N,N′-bis(methoxy)pentamidine]
Solubility ([1]; pH 2.0): 1304 ± 28 µM (≈ 522 µg/mL) | Solubility ([1]; pH 7.4): 8 ± 1 µM (≈ 3.2 µg/mL) | Solubility ([1]; pH 9.0): 10 ± 2 µM (≈ 4 µg/mL)

SMILES: N=C(NOC(=O)CCC(=O)O)c1ccc(OCCCCCOc2ccc(C(=N)NOC(=O)CCC(=O)O)cc2)cc1 [N,N′-bis(succinyloxy)pentamidine (1), 4,4′-Pentamethylendioxy-bis-[N-(carboxypropionyloxy)]benzamidine]
content pentamidine diamidoxime(3) ([2]; 70° C., 0 days): 0.4 ± 0.01% area % | content prodrug (1) ([2]; 70° C., 0 days): 98.4 area % | content succinyloxypentamidin ([2]; 70° C., 0 days): 1.0 ± 0.02% area % | content pentamidine diamidoxime(3) ([2]; 70° C., 1 day): 0.9 ± 0.01% area % | content prodrug (1) ([2]; 70° C., 1 day): 98.0 area % | content succinyloxypentamidin ([2]; 70° C., 1 day): 1.1 ± 0.03% area % | content pentamidine diamidoxime(3) ([2]; 70° C., 2 days): 1.0 ± 0.01% area % | content prodrug (1) ([2]; 70° C., 2 days): 97.6 area % | content succinyloxypentamidin ([2]; 70° C., 2 days): 1.3 ± 0.20% area % | content pentamidine diamidoxime(3) ([2]; 70° C., 4 days): 1.1 ± 0.01% area % | content prodrug (1) ([2]; 70° C., 4 days): 97.9 area % | content succinyloxypentamidin ([2]; 70° C., 4 days): 0.9 ± 0.01% area % | content pentamidine diamidoxime(3) ([2]; 70° C., 7 days): 1.5 ± 0.13% area % | content prodrug (1) ([2]; 70° C., 7 days): 97.4 area % | content succinyloxypentamidin ([2]; 70° C., 7 days): 1.1 ± 0.26% area % | content pentamidine diamidoxime(3) ([2]; room temperature, 0 months): 0.4 ± 0.01% area % | content prodrug (1) ([2]; room temperature, 0 months): 98.4 area % | content succinyloxypentamidine ([2]; room temperature, 0 months): 1.0 ± 0.02% area % | content pentamidine diamidoxime(3) ([2]; room temperature, 0.5 months): 0.5 ± 0.01% area % | content prodrug (1) ([2]; room temperature, 0.5 months): 98.4 area % | content succinyloxypentamidine ([2]; room temperature, 0.5 months): 1.0 ± 0.03% area % | content pentamidine diamidoxime(3) ([2]; room temperature, 1 month): 0.2 ± 0.02% area % | content prodrug (1) ([2]; room temperature, 1 month): 98.6 area % | content succinyloxypentamidine ([2]; room temperature, 1 month): 1.2 ± 0.16% area % | content pentamidine diamidoxime(3) ([2]; room temperature, 2 months): 0.6 ± 0.16% area % | content prodrug (1) ([2]; room temperature, 2 months): 97.5 area % | content succinyloxypentamidine ([2]; room temperature, 2 months): 1.8 ± 0.02% area % | content pentamidine diamidoxime(3) ([2]; room temperature, 3 months): 0.6 ± 0.01% area % | content prodrug (1) ([2]; room temperature, 3 months): 97.5 area % | content succinyloxypentamidine ([2]; room temperature, 3 months): 1.8 ± 0.04% area % | content pentamidine diamidoxime(3) ([2]; room temperature, 6 months): 0.5 ± 0.01% area % | content prodrug (1) ([2]; room temperature, 6 months): 97.8 area % | content succinyloxypentamidine ([2]; room temperature, 6 months): 1.5 ± 0.19% area % | Stability in the neutral and slightly alkaline pH range [3]: stable | Hydrolysis in aqueous medium ([3]; pH 2.0): rapid hydrolysis | Hydrolysis into monosuccinyl pentamidine and pentamidine diamidoxime (3) ([3]; pH 7.4): only to a minor extent | Hydrolysis into monosuccinyl pentamidine and pentamidine diamidoxime (3) ([3]; pH 9.0): only to a minor extent | Hydrolysis in plasma [4]: markedly | Solubility [1]: 7500 µM (≈ 4290 µg/mL) | Solubility ([1]; pH 2): hydrolysis | Solubility in acidic medium ([1]; pH 2): in the mM range | Solubility ([1]; pH 7.4): 7500 ± 340 µM (≈ 4290 µg/mL) | Solubility ([1]; pH 9): 10780 ± 70 µM (≈ 6170 µg/mL) | Relative oral bioavailability [5]: up to 98% | Pentamidine formation (conversion rate) [6]: 0.04 ± 0.01 nmol/min/mg

SMILES: N=C(N)c1ccc(OCCCCCOc2ccc(C(=N)N)cc2)cc1 [Pentamidine]
IC50 (leishmania): 820 to 2590 nM | IC50 (trypanosomes): 0.8 to 3.2 nM | IC50 (plasmodia): 35 to 129 nM
